Like-named read-outs stand apart in the source and are kept apart here.
Tested on: iCell cardiomyocytes (human iPSC-derived cardiomyocytes)
Test: High-content imaging of cytotoxicity and mitochondrial integrity in iPSC-CMs
Type: cell-based
Conditions: for viability at 0.01 µM / activity at 0.01 µM / viability at 0.1 µM / activity at 0.1 µM / viability at 1 µM / activity at 1 µM / viability at 10 µM / activity at 10 µM / viability at 100 µM / activity at 100 µM / minimal effective concentration: Homo sapiens, Cardiomyocyte
Procedure, shortened: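 Human iPSC-derived cardiomyocytes were seeded on gelatin-coated 384-well plates at 5,000 cells per well and maintained for 12 d. Test chemicals were added as 10μL of 5× solutions to final concentrations of 0.01 to 100μM. Cells were stained with Hoechst 33342 and MitoTracker™ Orange, fixed in formaldehyde, and imaged by confocal high-content microscopy at 10× magnification.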

[1] = 1.5 h, 90min, 0.00 µM = 100.00, read-out: cm.cam.90min
[2] = 1.5 h, 90min, 0.00 µM = 100.00, read-out: cm.mii.90min
[3] = 1.5 h, 90min, 0.00 µM = 100.00, read-out: cm.mito.90min
[4] = 1.5 h, 90min, 0.00 µM = 100.00, read-out: cm.tc.90min
[5] = 1.5 h, 0.10 µM, 90min, 0.00 µM = 100.00, read-out: cm.cam.90min
[6] = 1.5 h, 0.10 µM, 90min, 0.00 µM = 100.00, read-out: cm.mii.90min
[7] = 1.5 h, 0.10 µM, 90min, 0.00 µM = 100.00, read-out: cm.mito.90min
[8] = 1.5 h, 0.10 µM, 90min, 0.00 µM = 100.00, read-out: cm.tc.90min
[9] = 1.5 h, 10.00 µM, 90min, 0.00 µM = 100.00, read-out: cm.cam.90min
[10] = 1.5 h, 10.00 µM, 90min, 0.00 µM = 100.00, read-out: cm.mii.90min
[11] = 1.5 h, 10.00 µM, 90min, 0.00 µM = 100.00, read-out: cm.mito.90min
[12] = 1.5 h, 10.00 µM, 90min, 0.00 µM = 100.00, read-out: cm.tc.90min
[13] = 24 h, 24hrs, 0.00 µM = 100.00, read-out: cm.cam.24hrs
[14] = 24 h, 24hrs, 0.00 µM = 100.00, read-out: cm.mii.24hrs
[15] = 24 h, 24hrs, 0.00 µM = 100.00, read-out: cm.mito.24hrs
[16] = 24 h, 24hrs, 0.00 µM = 100.00, read-out: cm.tc.24hrs
[17] = 24 h, 0.10 µM, 24hrs, 0.00 µM = 100.00, read-out: cm.cam.24hrs
[18] = 24 h, 0.10 µM, 24hrs, 0.00 µM = 100.00, read-out: cm.mito.24hrs
[19] = 24 h, 0.10 µM, 24hrs, 0.00 µM = 100.00, read-out: cm.tc.24hrs
[20] = 24 h, 10.00 µM, 24hrs, 0.00 µM = 100.00, read-out: cm.mii.24hrs
[21] = 24 h, 100.00 µM, 24hrs, 0.00 µM = 100.00, read-out: cm.cam.24hrs
[22] = 24 h, 100.00 µM, 24hrs, 0.00 µM = 100.00, read-out: cm.mito.24hrs
[23] = 24 h, 100.00 µM, 24hrs, 0.00 µM = 100.00, read-out: cm.tc.24hrs
[24] = 24 h, read-out: cm.mii.24hrs POD
[25] = 100.00 µM, 90min, 0.00 µM = 100.00

In the case of `COc1cc(Cl)c(-c2cc(Cl)ccc2Cl)cc1Cl` [4-OMe PCB52], the viability at 0.01 µM [1] is reported as 94.3%, the activity at 0.01 µM [2] is reported as 101% and the activity at 0.01 µM [3] is reported as 94.1%. It also gave a viability at 0.01 µM [4] of 94.2%, a viability at 0.1 µM [5] of 98.7% and an activity at 0.1 µM [6] of 90.9%. It also gave an activity at 0.1 µM [7] of 98.7%, a viability at 0.1 µM [8] of 98.8% and a viability at 1 µM [1] of 101%. For the same molecule, the activity at 1 µM [2] was 95.2%, the activity at 1 µM [3] was 101% and the viability at 1 µM [4] was 101%. For the same molecule, the viability at 10 µM [9] was 100%, the activity at 10 µM [10] was 108% and the activity at 10 µM [11] was 99.8%. The viability at 10 µM [12] was 100%, the viability at 100 µM (1.5 h, 100.00 µM, 90min, 0.00 µM = 100.00, read-out: cm.cam.90min) was 0.37% and the activity at 100 µM (1.5 h, 100.00 µM, 90min, 0.00 µM = 100.00, read-out: cm.mii.90min) was 69.6%. For the same molecule, the activity at 100 µM (1.5 h, 100.00 µM, 90min, 0.00 µM = 100.00, read-out: cm.mito.90min) was 0.37%, the viability at 100 µM (1.5 h, 100.00 µM, 90min, 0.00 µM = 100.00, read-out: cm.tc.90min) was 0.46% and the minimal effective concentration (1.5 h, 90min, read-out: cm.cam.90min POD) was 27.6 µM. It also gave a minimal effective concentration (1.5 h, 90min, read-out: cm.mii.90min POD) of 57.2 µM, a minimal effective concentration (1.5 h, 90min, read-out: cm.mito.90min POD) of 18.6 µM and a minimal effective concentration (1.5 h, 90min, read-out: cm.tc.90min POD) of 33 µM. The viability at 0.01 µM [13] was 97.9%, the activity at 0.01 µM [14] was 95.9% and the activity at 0.01 µM [15] was 98.7%. It also gave a viability at 0.01 µM [16] of 98.3%, a viability at 0.1 µM [17] of 106% and an activity at 0.1 µM (24 h, 0.10 µM, 24hrs, 0.00 µM = 100.00, read-out: cm.mii.24hrs) of 91.2%. The activity at 0.1 µM [18] was 107%, the viability at 0.1 µM [19] was 106% and the viability at 1 µM [13] was 102%. The activity at 1 µM [14] was 99.8%, the activity at 1 µM [15] was 101% and the viability at 1 µM [16] was 102%. The viability at 10 µM (24 h, 10.00 µM, 24hrs, 0.00 µM = 100.00, read-out: cm.cam.24hrs) was 102%, the activity at 10 µM [20] was 78.7% and the activity at 10 µM (24 h, 10.00 µM, 24hrs, 0.00 µM = 100.00, read-out: cm.mito.24hrs) was 103%. For the same molecule, the viability at 10 µM (24 h, 10.00 µM, 24hrs, 0.00 µM = 100.00, read-out: cm.tc.24hrs) was 102%, the viability at 100 µM [21] was 4.05% and the activity at 100 µM (24 h, 100.00 µM, 24hrs, 0.00 µM = 100.00, read-out: cm.mii.24hrs) was 55.8%. The activity at 100 µM [22] was 2.86%, the viability at 100 µM [23] was 4.37% and the minimal effective concentration (24 h, read-out: cm.cam.24hrs POD) was 33 µM. The minimal effective concentration [24] was 5.58 µM, the minimal effective concentration (24 h, read-out: cm.mito.24hrs POD) was 35.8 µM and the minimal effective concentration (24 h, read-out: cm.tc.24hrs POD) was 35 µM.
`Clc1ccc(Cl)c(-c2c(Cl)ccc(Cl)c2Cl)c1Cl` [(+)-PCB 136, 2,2′,3,3′,6,6′-hexachlorobiphenyl] gave a cm.mii.24hrs (0.10 µM, 24hrs, 0.00 µM = 100.00) of 104.89, a cm.mito.24hrs (10.00 µM, 24hrs, 0.00 µM = 100.00) of 66.95 and a cm.mii.90min [25] of 30.66. For the same molecule, the cm.mito.90min [25] was 0.83, the cm.mii.24hrs (100.00 µM, 24hrs, 0.00 µM = 100.00) was 35.96 and the viability at 0.01 µM [1] was 94%. It also gave an activity at 0.01 µM [2] of 115%, an activity at 0.01 µM [3] of 94.1% and a viability at 0.01 µM [4] of 94.5%. For the same molecule, the viability at 0.1 µM [5] was 100%, the activity at 0.1 µM [6] was 108% and the activity at 0.1 µM [7] was 100%. It also gave a viability at 0.1 µM [8] of 100%, a viability at 1 µM [1] of 97.7% and an activity at 1 µM [2] of 103%. The activity at 1 µM [3] was 97.5%, the viability at 1 µM [4] was 97.8% and the viability at 10 µM [9] was 101%. For the same molecule, the activity at 10 µM [10] was 101%, the activity at 10 µM [11] was 102% and the viability at 10 µM [12] was 102%. The viability at 0.01 µM [13] was 92.8%, the activity at 0.01 µM [14] was 90.7% and the activity at 0.01 µM [15] was 95.4%. The viability at 0.01 µM [16] was 95.4%, the viability at 0.1 µM [17] was 96.6% and the activity at 0.1 µM [18] was 98.1%. For the same molecule, the viability at 0.1 µM [19] was 96.6%, the viability at 1 µM [13] was 95.6% and the activity at 1 µM [14] was 86.4%. The activity at 1 µM [15] was 97%, the viability at 1 µM [16] was 96.3% and the activity at 10 µM [20] was 99.9%. It also gave a viability at 100 µM [21] of 1.96%, an activity at 100 µM [22] of 1.15% and a viability at 100 µM [23] of 2.72%. For the same molecule, the minimal effective concentration (24 h, cardiomyocytes (cm), mii, 24 hrs, read-out: POD cm.mii.24hrs) was 50.8 µM and the minimal effective concentration [24] was 50.8 µM.
